Values quoted from earlier work in patent publication US20160206673A1, “Composition and Method for Improving Sexual Performance” (priority 2015, published 2016).

How the values were obtained:
[1] = test system: men with erectile dysfunction; conditions: background evidence
[2] = test system: men with erectile dysfunction; conditions: oral medications

Row | Compound | effect on sexual function / erectile dysfunction [1] | side effects / safety [1] | duration of erection helping effects [2]
1 | C[C@]12CC[C@H](O)CC1=CC[C@@H]1[C@@H]2CC[C@]2(C)C(=O)CC[C@@H]12 [DHEA, dehydroepiandrosterone] | increases libido in women and helps erectile dysfunction in men |  | 
2 | N=C(N)NCCC[C@H](N)C(=O)O [L-arginine] | improves erectile dysfunction | nausea, cramps and diarrhea | 
3 | COC(=O)[C@@H]1[C@H]2C[C@H]3c4[nH]c5ccccc5c4CCN3C[C@@H]2CC[C@@H]1O [Yohimbine] | can improve sexual dysfunction associated with a drug used to treat depression | increased blood pressure, fast or irregular heartbeat, and anxiety | 
4 | CCCc1nn(C)c2c(=O)[nH]c(-c3cc(S(=O)(=O)N4CCN(C)CC4)ccc3OCC)nc12 [sildenafil] |  |  | up to eight
